# Reference: patent US20220024882A1, “NOVEL TUMOR ANTIGEN BINDING AGENTS AND USES THEREOF” (ITM Isotopen Technologien München AG, priority 2018, published 2022)
# Test system: PC-3 PIP/flu tumor-bearing mice
# Test: Biodistribution study in PC-3 PIP/flu tumor-bearing mice
# Type: in vivo, athymic nude Balb/c mice
# Conditions: for Blood / Bone / Heart / Intestines / Kidneys / Liver / Lung / Muscle / Salivary glands / Spleen / Stomach / Tumor-to-blood / Tumor-to-kidney / Tumor-to-liver: PC-3 PIP/flu tumor-bearing mice; for PC-3 flu Tumor: PSMA-negative tumor xenograft; for PC-3 flu Tumor / PC-3 PIP Tumor: mice; for PC-3 PIP Tumor: PSMA-positive tumor xenograft
# Method: In vivo experiments were approved by the local veterinarian department and conducted in accordance with the Swiss law of animal protection. Mice were obtained from Charles River Laboratories, Sulzfeld, Germany, at the age of 5-6 weeks. Female, athymic nude Balb/c mice were subcutaneously inoculated with PSMA-positive PC-3 PIP cells (6×10^6 cells in 100 μL Hank's balanced salt solution (HBSS) with Ca^2+/Mg^2+) on the right shoulder and with PSMA-negative PC-3 flu cells (5×10^6 cells in 100 μL HBSS Ca^2+/Mg^2+) on the left shoulder. Two weeks later, the tumors reached a size of about 80-300 mm^3 suitable for the performance of the biodistribution studies.
# Biodistribution studies were performed 12-15 days after PC-3 PIP/flu tumor cell inoculation. […] The radioligands were injected in a lateral tail vein in a volume of 100-200 μL. Mice were euthanized at different time points after injection (p.i.) of the radioligands. Selected tissues and organs were collected, weighed and measured using a γ-counter. The results were decay-corrected and listed as a percentage of the injected activity per gram of tissue mass (% IA/g) (Table 3 and 4).
# Mice were obtained from Charles River Laboratories, Sulzfeld, Germany, at the age of 5-6 weeks. Female, athymic nude BALB/c mice were subcutaneously inoculated with PSMA-positive PC-3 PIP cells (6×10^6 cells in 100 μL Hank's balanced salt solution (HBSS)) on the right shoulder and with PSMA-negative PC-3 flu cells (5×10^6 cells in 100 μL HBSS) on the left shoulder. Two weeks later, the tumors reached a size of about 80-300 mm^3 suitable for the performance of the biodistribution and imaging studies.
# Biodistribution studies were performed 12-15 days after PC-3 PIP/flu tumor cell inoculation. ^177Lu-Ibu-sPSMA was diluted in 0.9% NaCl containing 0.05% bovine serum albumin (BSA) to prevent adhesion to the vial and syringe material. The radioligand was injected in a lateral tail vein in a volume of 100 μL. Mice were euthanized at different time points after injection (p.i.) of the radioligand. Selected tissues and organs were collected, weighed and measured using a γ-counter. The results were decay-corrected and listed as a percentage of the injected activity per gram of tissue mass (% IA/g) (Table 6, FIG. 18).
smiles,measurement,setting,value
"CC(C)Cc1ccc(C(C)C(=O)NCC[C@H](NC(=O)CN2CCN(CC(=O)O)CCN(CC(=O)O)CCN(CC(=O)O)CC2)C(=O)NCC2CCC(C(=O)N[C@@H](Cc3ccc4ccccc4c3)C(=O)NCCCC[C@H](NC(=O)N[C@@H](CCC(=O)O)C(=O)O)C(=O)O)CC2)cc1 (stereo partly shown) [^177Lu-Ibu-sPSMA, metal not drawn]",Blood,1 h p.i.,29±4 % IA/g
same,Bone,1 h p.i.,3.3 ± 0.4 % IA/g
same,Heart,1 h p.i.,9.3 ± 1.5 % IA/g
same,Intestines,1 h p.i.,2.9 ± 0.3 % IA/g
same,Kidneys,1 h p.i.,114±15 % IA/g
same,Liver,1 h p.i.,17±4 % IA/g
same,Lung,1 h p.i.,17 ± 3 % IA/g
same,Muscle,1 h p.i.,3.1 ± 0.7 % IA/g
same,Salivary glands,1 h p.i.,6.6 ± 0.5 % IA/g
same,Spleen,1 h p.i.,5.8 ± 1.2 % IA/g
same,Stomach,1 h p.i.,2.6 ± 0.5 % IA/g
same,Tumor-to-blood,1 h p.i.,2.2 ± 0.1
same,Tumor-to-kidney,1 h p.i.,0.56±0.09
same,Tumor-to-liver,1 h p.i.,3.7 ± 0.5
same,PC-3 flu Tumor,1 h p.i.,5.1 ± 0.7 % IA/g
same,PC-3 PIP Tumor,1 h p.i.,63±8 % IA/g
same,Blood,4 h p.i.,7.2 ± 0.7 % IA/g
same,Bone,4 h p.i.,1.1 ± 0.2 % IA/g
same,Heart,4 h p.i.,2.4 ± 0.2 % IA/g
same,Intestines,4 h p.i.,1.1 ± 0.2 % IA/g
same,Kidneys,4 h p.i.,28 ± 2 % IA/g
same,Liver,4 h p.i.,7.2±0.5 % IA/g
same,Lung,4 h p.i.,4.9 ± 0.7 % IA/g
same,Muscle,4 h p.i.,0.84 ± 0.14 % IA/g
same,Salivary glands,4 h p.i.,1.9 ± 0.2 % IA/g
same,Spleen,4 h p.i.,2.1 ± 0.3 % IA/g
same,Stomach,4 h p.i.,1.3 ± 0.9 % IA/g
same,Tumor-to-blood,4 h p.i.,14 ± 3
same,Tumor-to-kidney,4 h p.i.,3.6 ± 0.2
same,Tumor-to-liver,4 h p.i.,14 ± 2
same,PC-3 flu Tumor,4 h p.i.,2.0 ± 0.3 % IA/g
same,PC-3 PIP Tumor,4 h p.i.,99 ± 7 % IA/g
same,Blood,24 h p.i.,0.76 ± 0.07 % IA/g
same,Bone,24 h p.i.,0.27 ± 0.04 % IA/g
same,Heart,24 h p.i.,0.39 ± 0.04 % IA/g
same,Intestines,24 h p.i.,0.31 ± 0.07 % IA/g
same,Kidneys,24 h p.i.,10 ± 2 % IA/g
same,Liver,24 h p.i.,0.81 ± 0.09 % IA/g
same,Lung,24 h p.i.,0.79 ± 0.07 % IA/g
same,Muscle,24 h p.i.,0.14 ± 0.02 % IA/g
same,Salivary glands,24 h p.i.,0.37 ± 0.05 % IA/g
same,Spleen,24 h p.i.,0.72 ± 0.15 % IA/g
same,Stomach,24 h p.i.,0.50 ± 0.19 % IA/g
same,Tumor-to-blood,24 h p.i.,173 ± 18
same,Tumor-to-kidney,24 h p.i.,13 ± 2
same,Tumor-to-liver,24 h p.i.,163 ± 16
same,PC-3 flu Tumor,24 h p.i.,0.66 ± 0.07 % IA/g
same,PC-3 PIP Tumor,24 h p.i.,132±15 % IA/g
same,Blood,96 h p.i.,0.27 ± 0.02 % IA/g
same,Bone,96 h p.i.,0.08 ± 0.01 % IA/g
same,Heart,96 h p.i.,0.12 ± 0.01 % IA/g
same,Intestines,96 h p.i.,0.13 ± 0.03 % IA/g
same,Kidneys,96 h p.i.,2.3 ± 0.3 % IA/g
same,Liver,96 h p.i.,0.22 ± 0.02 % IA/g
same,Lung,96 h p.i.,0.25 ± 0.03 % IA/g
same,Muscle,96 h p.i.,0.04 ± 0.02 % IA/g
same,Salivary glands,96 h p.i.,0.11 ± 0.02 % IA/g
same,Spleen,96 h p.i.,0.22 ± 0.03 % IA/g
same,Stomach,96 h p.i.,0.73 ± 0.82 % IA/g
same,Tumor-to-blood,96 h p.i.,210 ± 35
same,Tumor-to-kidney,96 h p.i.,25 ± 2
same,Tumor-to-liver,96 h p.i.,263 ± 42
same,PC-3 flu Tumor,96 h p.i.,0.15 ± 0.02 % IA/g
same,PC-3 PIP Tumor,96 h p.i.,57±9 % IA/g
